Reference: patent publication US8637553B2, “Fluoro substituted omega-carboxyaryl diphenyl urea for the treatment and prevention of diseases and conditions” (Bayer Healthcare LLC, priority 2003, dated 2014)

Columns and labels:
[1] = tested on: phospho-PDGFR-beta in aortic smooth muscle cells; test: pPDGFR-beta in AoSMC cells; type: cell-based; conditions: PDGF-BB stimulated
Description: 100K P3-P6 Aortic SMC were plated in each well of 12-well cluster in 1000 μL volume/well of SGM-2 using standard cell culture techniques. Next day, cells were rinsed with 1000 μL D-PBS once, then serum starved in 500 μL SBM (smooth muscle cell basal media) with 0.1% BSA overnight. Compounds were diluted at a dose range from (10 μM to 1 nM in 10-fold dilution steps in DMSO. Final DMSO concentration 0.1%). Remove old media by inversion into the sink quickly then add 100 μL of each dilution to corresponding well of cells for 1 h at 37° C. Cells were then stimulated with 10 ng/mL PDGF-BB ligand for 7 min at 37° C. The media is decanted and 150 μL of isotonic lysis buffer with protease inhibitor tablet (Complete; EDTA-free) and 0.2 mM Na vanadate is added. Cells are lysed for 15 min at 4° C. on shaker in cold room. Lysates are put in eppendorf tubes to which 15 μL of agarose-conjugated anti-PDGFR-beta antibody is added and incubated at 4° C. overnight. Next day, beads are rinsed in 50-volumes of PBS three times and boiled in 1×LDS sample buffer for 5 minutes. Samples were run on 3-8% gradient Tris-Acetate gels and transferred onto Nitrocellulose. Membranes were blocked in 1% BSA/TBS-T for 1 hr. before incubation in anti-phospho-PDGFR-b (Tyr-857) antibody in blocking buffer (1:1000 dilution) for 1 h. […]

pERK in MDA-MB-231 cells = test: Bio-Plex phospho-ERK 1/2 immunoassay (basal pERK); type: cell-based; conditions: Homo sapiens, 2 h incubation
Description: A 96 well pERK immunoassay, using laser flow cytometry (Bio-Rad) platform has been established to measure inhibition of basal pERK in breast cancer cell line. MDA-MB-231 cells were plated at 50,000 cells per well in 96 well microtitre plates in complete growth media. For effects of test compounds on basal pERK½ inhibition, the next day after plating, MDA-MB-231 cells were transferred to DMEM with 0.1% BSA and incubated with test compounds diluted 1:3 to a final concentration of 3 μM to 12 nM in 0.1% DMSO. Cells were incubated with test compounds for 2 h, washed, and lysed in Bio-Plex whole cell lysis buffer A. Samples are diluted with buffer B 1:1 (v/v) and directly transferred to assay plate or frozen at −80 C. degrees until processed. 50 μL of diluted MDA-MB-231 cell lysates were incubated with about 2000 of 5 micron Bio-Plex beads conjugated with an anti-ERK½ antibody overnight on a shaker at room temperature. The next day, biotinylated phospho-ERK½ sandwich immunoassay was performed, beads are washed 3 times during each incubation and then 50 μL of PE-strepavidin was used as a developing reagent. The relative fluorescence units of pERK½ were detected by counting 25 beads with Bio-Plex flow cell (probe) at high sensitivity. The IC50 was calculated by taking untreated cells as maximum and no cells (beads only) as background using in an Excel spreadsheet based program.

p38 α2 = molecular target: T1, p38 α2 (Homo sapiens, UniProt Q16539); test: p38 kinase in vitro assay; conditions: in vitro kinase biochemical assay
T1 construct: His; made in house; host or cells: E. coli
T1 sequence (Q16539 whole entry): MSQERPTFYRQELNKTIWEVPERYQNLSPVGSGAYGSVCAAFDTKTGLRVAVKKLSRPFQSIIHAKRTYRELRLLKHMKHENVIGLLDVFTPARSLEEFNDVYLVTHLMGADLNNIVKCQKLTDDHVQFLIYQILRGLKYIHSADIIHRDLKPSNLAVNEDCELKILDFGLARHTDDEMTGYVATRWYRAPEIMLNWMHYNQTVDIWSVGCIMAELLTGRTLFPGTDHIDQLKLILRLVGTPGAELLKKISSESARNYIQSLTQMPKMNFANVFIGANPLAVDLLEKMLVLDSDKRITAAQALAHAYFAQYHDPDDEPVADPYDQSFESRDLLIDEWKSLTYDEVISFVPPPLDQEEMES
Description: Purified and His-tagged p38 α2 (expressed in E. Coli) was activated in vitro by MMK-6 to a high specific activity. Using a microtiter format, all reactions were conducted in 100 μL volumes with reagents diluted to yield 0.05 μg/well of activated p38 α2 and 10 μg/well of myelin basic protein in assay buffer (25 mM HEPES 7.4, 20 mM MgCl2, 150 mM NaCl). Test compounds (5 μL of a 10% DMSO solution in water) were prepared and diluted into the assay to cover a final concentration range from 5 nM to 2.5 μM. The kinase assay was initiated by addition of 25 μL of an ATP cocktail to give a final concentration of 10 μM cold ATP and 0.2 μCi [gamma-^33P] ATP per well (200-400 dpm/pmol of ATP). The plate was incubated at 32° C. for 35 min., and the reaction quenched with 7 μL of a 1 N aq HCl solution. The samples were harvested onto a P30 Filtermat (Wallac, Inc.) using a TomTec 1295 Harvester (Wallac, Inc.), and counted in a LKB 1205 Betaplate Liquid Scintillation Counter (Wallac, Inc.). Negative controls included substrate plus ATP alone. SW1353 cellular assay: SW1353 cells (human chondro-sarcoma) are seeded (1000 cells/100 μL DMEM 10% FCS/well) into 96-well plates and incubated overnight. […] Cultures are incubated for 48 h at 37° C., then supernatant IL-6 values are determined by ELISA.

MDA-MB-231 cells = test: MDA-MB231 proliferation assay (CellTiter-Glo); type: cell-based; conditions: Homo sapiens, 72 hours
Description: Human breast carcinoma cells (MDA MB-231, NCI) were cultured in standard growth medium (DMEM) supplemented with 10% heat-inactivated FBS at 37° C. in 5% CO2 (vol/vol) in a humidified incubator. Cells were plated at a density of 3000 cells per well in 90 μL growth medium in a 96 well culture dish. In order to determine T0h CTG values, 24 hours after plating, 100 μL of CellTiter-Glo Luminescent Reagent (Promega) was added to each well and incubated at room temperature for 30 minutes. Luminescence was recorded on a Wallac Victor II instrument. The CellTiter-Glo reagent results in cell lysis and generation of a luminescent signal proportional to the amount of ATP present, which, in turn is directly proportional to the number of cells present.
Test compounds are dissolved in 100% DMSO to prepare 10 mM stocks. […] The cells with and without individual test compounds were incubated for 72 hours at which time ATP dependent luminescence was measured, as described previously, to yield T72h values. Optionally, the IC50 values can be determined with a least squares analysis program using compound concentration versus percent inhibition. % Inhibition=[1−(T72h test−T0h)/(T72h ctrl−T0h)]×100, where T72h test=ATP dependent luminescence at 72 hours in the presence of test compound T72h ctrl=ATP dependent luminescence at 72 hours in the absence of test compound T0h=ATP dependent luminescence at Time Zero

## CNC(=O)c1cc(Oc2ccc(NC(=O)Nc3ccc(Cl)c(C(F)(F)F)c3)c(F)c2)ccn1 [Example 1, 4{4-[3-(4-chloro-3-trifluoromethylphenyl)-ureido]-3-fluorophenoxy}-pyridine-2-carboxylic acid methylamide]
[1]
  IC50: 43.6 nM
pERK in MDA-MB-231 cells
  IC50: 22 nM
p38 α2
  IC50: 24 nM
MDA-MB-231 cells
  IC50: 600 nM
